# Data from patent US9809562B2, “NAT10 modulators for treating or preventing laminopathies, aging and cancer” (CAMBRIDGE ENTERPRISE LIMITED, priority 2014, dated 2017).
# Counter-ions that a name gives are not always drawn.
# Legend:
# HGPS fibroblasts = assay: Microarray gene expression, HGPS fibroblasts; assay type: cell-based, human
# Procedure: Normal fibroblasts or HGPS fibroblasts were kept in culture for 12 population doublings with chronic treatment of 1 μM Compound 2 (top panels of FIG. 29) or transfected with siRNA against NAT10 for 3 days (bottom panels of FIG. 29). RNA was extracted and global gene expression was analysed by microarray. Volcano plots show a very high specificity of Compound 2 towards gene expression regulation of HGPS cells, with about 1000 genes affected more than 2 fold, whereas only 24 genes were affected in normal fibroblasts.
# [1] = target: T1, NAT10 purified from HEK293 cells (Homo sapiens, UniProt Q9H0A0); assay: Circular dichroism spectroscopy of purified NAT10; assay type: binding; conditions: titration, 10 μM FLAG-NAT10, concentration-dependent
# T1 construct: made in house; host or cells: HEK293 (transient transfection, anti-FLAG immunopurification, elution with triple-Flag peptide)
# T1 sequence (Q9H0A0 1-1025): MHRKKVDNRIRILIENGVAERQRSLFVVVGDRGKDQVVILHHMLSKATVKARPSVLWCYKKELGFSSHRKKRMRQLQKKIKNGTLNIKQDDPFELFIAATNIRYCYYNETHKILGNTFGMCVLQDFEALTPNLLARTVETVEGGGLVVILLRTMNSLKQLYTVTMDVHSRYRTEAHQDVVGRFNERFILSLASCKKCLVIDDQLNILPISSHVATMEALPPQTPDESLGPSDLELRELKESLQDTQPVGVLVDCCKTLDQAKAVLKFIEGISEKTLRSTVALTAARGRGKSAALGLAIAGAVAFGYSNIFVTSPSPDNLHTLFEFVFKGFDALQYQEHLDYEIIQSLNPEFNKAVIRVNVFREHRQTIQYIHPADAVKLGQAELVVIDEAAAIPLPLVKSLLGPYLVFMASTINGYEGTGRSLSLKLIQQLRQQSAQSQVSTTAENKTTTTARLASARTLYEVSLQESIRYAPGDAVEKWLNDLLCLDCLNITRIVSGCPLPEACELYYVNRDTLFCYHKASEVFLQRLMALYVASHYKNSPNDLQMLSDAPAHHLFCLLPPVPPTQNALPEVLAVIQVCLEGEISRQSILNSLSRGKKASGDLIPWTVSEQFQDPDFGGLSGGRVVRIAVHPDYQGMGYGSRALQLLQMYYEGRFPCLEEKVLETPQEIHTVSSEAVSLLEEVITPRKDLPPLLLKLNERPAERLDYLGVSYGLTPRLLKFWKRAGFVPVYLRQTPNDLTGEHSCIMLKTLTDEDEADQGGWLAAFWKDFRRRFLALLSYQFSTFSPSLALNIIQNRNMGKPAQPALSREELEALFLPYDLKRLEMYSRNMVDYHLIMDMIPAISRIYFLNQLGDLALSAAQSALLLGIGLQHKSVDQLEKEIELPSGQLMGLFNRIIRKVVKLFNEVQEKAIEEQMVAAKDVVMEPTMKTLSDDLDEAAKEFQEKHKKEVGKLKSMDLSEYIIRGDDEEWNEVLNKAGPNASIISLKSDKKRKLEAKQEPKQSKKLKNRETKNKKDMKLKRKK
# Procedure: HEK293 cells were transiently transfected with NAT10 constructs and harvested after 48 hours in PBS. Cells were lysed for 5 minutes at room temperature in IP lysis buffer (20 mM Tris pH 7.5, 40 mM NaCl, 2 mM MgCl2, 0.5% NP-40) freshly supplemented with 50 U/ml benzonase and EDTA-free protease inhibitor cocktail (Roche). After this initial lysis step, NaCl concentration was adjusted to 450 mM and samples were incubated at 4° C. with rotation. Lysates were clarified by centrifugation (13,200 rpm, 20 minutes at 4° C.), and after recovery NaCl concentration was equilibrated to 150 mM. Lysates were used for immunoprecipitation reaction in IP buffer (25 mM Tris pH 7.5, 150 mM NaCl, 1.5 mM DTT, 10% glycerol, 0.5% NP-40) supplemented with protease inhibitors. Target proteins were captured with anti-FLAG antibody (M2, Sigma-Aldrich) coupled to protein A/G-Dynabeads (Life Sciences). Complexes were washed with IP buffer containing incrementally increasing amounts of NaCl (250 mM, 500 mM, and 1M). Following this, the immuno-complexes were washed in TBS containing gradually decreasing amounts on NaCl (1M, 500 mM, 250 mM, and 150 mM). […]
# CD experiments were performed using a Chirascan Circular Dichroism Spectrophotometer (Applied Photophysics, UK). […] CD scans were recorded at 25° C. over the wavelength range of 180 to 350 nm with a 1 second response time, 1 nm pitch and 1.5-nm bandwidth. […]
# SUN1 in siLMNA cells = assay: SUN1 expression and localization in siLMNA cells; assay type: cell-based, human
# Procedure: Cells were washed with PBS and fixed for 20 minutes with 2% PFA in PBS. Cells were permeabilised for 5 minutes with PBS/0.2% Triton X-100, and blocked with PBS/0.2% Tween 20 (PBS-T) containing 5% BSA. Coverslips were incubated for 1 hour with primary antibodies and for 30 minutes with appropriate secondary antibodies coupled to Alexa Fluor 488 or 594 fluorophores (Life Technologies), before being incubated with 2 μg/ml DAPI. Pictures were acquired with a FluoView 1000 confocal microscope (Olympus). For high resolution imaging, z-stacks were acquired with a Deltavision PersonalDV (Applied Precision, 1024×1024 CoolSNAP HQ2 camera, z-stack of 0.2 μm interval) or with a Deltavision OMX V3 in conventional mode (Applied Precision, 512×512 Cascade II cameras (Photometrics), z-stack of 0.125 μm interval) both equipped with a 100× UPlanSApo/1.40 oil objective (Olympus) and controlled with SoftWoRx software (Applied Precision). Deconvolutions were then performed with SoftWoRx (Applied Precision) in conservative mode. The different channels were acquired sequentially.
SMILES,"number of genes affected more than 2 fold (HGPS fibroblasts; HGPS fibroblasts, 1 μM, 12 population doublings)","genes misregulated in HGPS that are rescued (HGPS fibroblasts; HGPS vs normal fibroblasts, Venn diagrams)","NAT10 conformation, absolute molar ellipticity at 210 nm [1]",expression and localization of SUN1 (SUN1 in siLMNA cells)
"Clc1ccc(-c2csc(NN=C3CCCC3)n2)cc1 [Compound 2, 4-(4-Chlorophenyl)-2-(2-cyclopentylidenehydrazinyl)thiazole Hydrochloride Salt]",about 1000 genes,about half of the genes that are misregulated in HGPS compared to normal fibroblasts are rescued,clear increase in the absolute molar ellipticity,–
"N#Cc1ccc(-c2csc(NN=C3CCCC3)n2)cc1 [Compound 1, 4-(4-Cyanophenyl)-2-(2-cyclopentylidenehydrazinyl)thiazole]",–,–,–,does not detectably affect the expression and localization of SUN1
